Reference: patent US12171744B2, “Pharmaceutical combinations for the treatment of cancer” (Presage Biosciences, Inc., priority 2016, dated 2024)

Tests used:
[1] = target: T1, CDK1 (Homo sapiens, UniProt P06493); assay: Kinase inhibition profiling (filter binding assay with γ-33P-ATP); format: biochemical
T1 construct: purchased Reaction Biology Corp. (testing facility)
Method: (§1) For each kinase, an IC50 value were calculated from a 10-point concentration curve of the test article and converted to Ki values.

[2] = target: T2, CDK4 (Homo sapiens, UniProt P11802); assay: as above; format: biochemical
T2 construct: purchased Reaction Biology Corp. (testing facility)
Method: as §1

[3] = target: T3, CDK6 (Homo sapiens, UniProt Q00534); assay: as above; format: biochemical
T3 construct: purchased Reaction Biology Corp. (testing facility)
Method: as §1

[4] = test system: 38 different kinases; assay: Comparison of inhibition profiles on 38 different kinases; format: biochemical; conditions: compared with flavopiradol
[5] = test system: Ramos Burkitt's lymphoma cells; assay: CIVO microinjection, cleaved caspase-3 staining; format: in vivo, mice; conditions: marker of apoptosis
Method: (§2) Mice were enrolled into CIVO drug studies when the tumor volume reached approximately 1000 mm^3. Microinjection studies were performed using the CIVO device as previously described (Klinghoffer et al, Science Translational Medicine 2015) The device was configured with 6 injection needles set for a 6 mm injection length and a total volume delivery of 3 μl. A fluorescent tracking marker (FTM) was added to each drug reservoir in vehicle for delivery along with each drug or drug combination. All micro-doses were equivalent to or lower than what would be allowed under FDA guidelines for Exploratory IND (Investigational New Drug) studies and by solubility of drug into vehicle. Total amounts of agents injected are tabulated below in Table 4.
FIGS. 5A-5D show Ramos Burkitt's lymphoma cells stained for cleaved caspase-3 (CC3) (shown in red) as a marker of apoptosis.

[6] = test system: HCC1187 triple negative breast cancer (TNBC) xenograft model; assay: CIVO microinjection, MCL-1 and CC3 staining; format: in vivo, mice; conditions: marker of apoptosis
Method: as §2
A drug screen was performed to test multiple drugs simultaneously.
FIG. 11 depicts a similar experiment performed on the HCC1187 triple negative breast cancer (TNBC) xenograft model. […] Cells were then stained for CC3 expression (shown in red) as a marker of apoptosis.
FIGS. 20A-20D depicts the HCC1187 triple negative breast cancer (TNBC) xenograft model. Briefly, cells were treated with vehicle, voruciclib alone, ixazomib alone, or voruciclib and ixazomib in combination. Cells were then stained for CC3 expression (shown in red) as a marker of apoptosis.

[7] = test system: OCI Ly10 model of DLBCL; assay: Western blot of treated cells; format: cell-based; conditions: 5 uM voruciclib, 50 nM venetoclax; 24 h
Method: Cell lines shown in Table 1, adherent or suspension, were treated in 6-well dishes or T10 flasks respectively, seeded at one million per ml density prior to treatment in total volumes of 3-10 ml. All agents used for in vitro cell treatments were formulated in water/DMSO to achieve required concentrations (as stated in respective figure labels/legends) with DMSO concentrations not exceeding 0.01%. Drug sources are indicated in table under ‘CIVO microinjection studies’. Cells were harvested at experimental time points: 2, 6, or 24 hours post treatment as indicated in respective figures, first by washing cells twice in ice-cold PBS in 15 ml falcon tubes, centrifugation at 1000 rpm for 5 mins followed by lysis of the respective cell pellets as described in section below. Note: Drug resistant NUDHL1 Dox 1000 nM and Toledo Dox 1000 nM cell lines were generated at Presage by culturing parental lines in media with stepwise increments in Doxorubicin concentration over several passages. […]
Protein lysates were prepared by adding ice-cold 1×RIPA Buffer (from 10×, Millipore) with 1×-3× Halt protease and phosphatase inhibitor cocktail (100×, Pierce) to cell pellets, followed by pulse sonication (˜3-5 secs) three times. […] Protein samples were quantified using Bradford assay (Biorad) at 1:10 or higher dilutions using appropriate blank controls with 1×RIPA. […]

[8] = test system: DLBCL xenograft tumors (OCILY10); assay: MCL1 expression in xenograft tumors after oral dosing; format: in vivo, mice; conditions: 100 mpk, oral gavage daily for 5 days, 4 h post final dose
Method: Protein lysates were prepared by adding ice-cold 1×RIPA Buffer (from 10×, Millipore) with 1×-3× Halt protease and phosphatase inhibitor cocktail (100×, Pierce) to cell pellets, followed by pulse sonication (˜3-5 secs) three times. Lysates were cleared by centrifugation at 14K rpm for 15-20 mins and the supernatant (lysate) was collected for further analysis. To prepare lysates from cryopreserved xenograft tumor tissue, tissue was first homogenized using a hand-held tissue homogenizer (Cole Palmer) in above lysis buffer followed by pulse sonication and centrifugation as described above. Above steps were carried out under ice cold conditions. Protein samples were quantified using Bradford assay (Biorad) at 1:10 or higher dilutions using appropriate blank controls with 1×RIPA. 20-25 micrograms of protein from each sample were subject to SDS-PAGE using BOLT 4-12% Bis-Tris gels (Thermofisher) and transferred to either 0.45 or 0.2 micron pore size membranes (as applicable based on protein molecular size), and either nitrocellulose (NC) or pvdf (Thermofisher) using manufacturer's protocol, blocked for one hour in 5% milk at room temperature, probed with primary antibodies (Table 2) at 4 deg C. overnight and corresponding HRP-conjugated secondary antibodies (Jackson Immunoresearch, 1:10,000-1:20,000 dilutions) for 1 hour at room temperature. […]

[9] = test system: RIVA (activated B-cell, or ABC) model of DLBCL; assay: Xenograft tumor growth; format: in vivo, NOD SCID mice; conditions: Voruciclib 200 mpk, Venetoclax 1 mpk
Method: Immune deficient NOD SCID mice were implanted with the RIVA (activated B-cell, or ABC) model of DLBCL. The xenografted tumors were allowed to grow in the NOD SCID host until they reached 200 mm^3, at which point the xenografted animals were randomized into 4 study groups: 1. Vehicle control; 2. […] Venetoclax at 1 mpk; and 4. […] Venetoclax was dosed by oral gavage on days 1 and 4 of each weekly cycle. Drug effects were assessed via tumor volume measurements twice weekly by a technician blinded to the treatment of each subject in the study. N=5-6 animals per treatment arm.

[10] = target: MAK (Homo sapiens, UniProt P20794); assay: Kinase inhibition profile
[11] = Body weight in HCC1187 TNBC mouse model; conditions: in vivo
Method: Mice were enrolled for study when tumors reached an average volume of 150-200 mm^3. Tumor volume was calculated as V=length×width×height, all three dimensions measured using digital calipers along with body weight. Animals were removed from the study when—any one of the three measured dimensions of the tumor exceeding 2 cm, volume exceeding 2500 mm^3, ulceration or body weight loss greater than 20%.

[12] = target: CDK9 (Homo sapiens, UniProt P50750); assay: Kinase inhibition profiling (filter binding assay with γ-33P-ATP)
Chain of CDK9 (P50750 whole entry): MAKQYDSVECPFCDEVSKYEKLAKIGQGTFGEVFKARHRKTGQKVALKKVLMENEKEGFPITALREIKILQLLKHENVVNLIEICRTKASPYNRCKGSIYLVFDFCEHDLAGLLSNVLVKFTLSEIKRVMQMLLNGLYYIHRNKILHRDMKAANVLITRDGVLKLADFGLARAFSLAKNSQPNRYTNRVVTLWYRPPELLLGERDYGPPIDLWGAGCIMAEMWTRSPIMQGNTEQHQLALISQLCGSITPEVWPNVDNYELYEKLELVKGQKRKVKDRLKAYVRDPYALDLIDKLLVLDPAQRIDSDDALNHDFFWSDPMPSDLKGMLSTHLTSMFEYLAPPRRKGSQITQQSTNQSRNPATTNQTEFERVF
Chain of CDK9 (O60563 whole entry partner): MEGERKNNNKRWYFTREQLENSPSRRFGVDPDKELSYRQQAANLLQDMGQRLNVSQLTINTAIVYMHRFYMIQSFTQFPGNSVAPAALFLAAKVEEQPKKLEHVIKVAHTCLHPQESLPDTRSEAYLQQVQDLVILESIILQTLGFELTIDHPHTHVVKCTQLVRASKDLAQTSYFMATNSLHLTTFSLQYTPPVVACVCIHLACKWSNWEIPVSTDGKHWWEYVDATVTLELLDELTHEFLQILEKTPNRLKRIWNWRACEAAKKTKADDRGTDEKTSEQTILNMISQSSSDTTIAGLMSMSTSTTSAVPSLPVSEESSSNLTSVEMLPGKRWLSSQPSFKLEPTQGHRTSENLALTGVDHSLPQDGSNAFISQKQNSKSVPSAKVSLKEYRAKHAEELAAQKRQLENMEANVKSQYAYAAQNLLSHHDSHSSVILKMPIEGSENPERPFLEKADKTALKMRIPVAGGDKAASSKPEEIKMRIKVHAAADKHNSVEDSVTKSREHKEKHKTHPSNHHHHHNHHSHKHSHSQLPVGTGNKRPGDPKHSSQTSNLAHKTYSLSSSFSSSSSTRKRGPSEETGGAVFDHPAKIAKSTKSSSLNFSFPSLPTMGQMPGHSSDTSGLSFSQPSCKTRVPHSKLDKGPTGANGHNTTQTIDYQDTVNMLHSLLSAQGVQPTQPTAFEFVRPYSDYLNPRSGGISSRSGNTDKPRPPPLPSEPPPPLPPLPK
Method: The testing facility was Reaction Biology Corp. Kinase activity was measured using a filter binding assay with radioactive γ-33P-ATP as phosphate donor. The ATP concentration was near the Km for respective kinase. For each kinase, an IC50 value were calculated from a 10-point concentration curve of the test article and converted to Ki values.

T2 sequence (P11802 whole entry): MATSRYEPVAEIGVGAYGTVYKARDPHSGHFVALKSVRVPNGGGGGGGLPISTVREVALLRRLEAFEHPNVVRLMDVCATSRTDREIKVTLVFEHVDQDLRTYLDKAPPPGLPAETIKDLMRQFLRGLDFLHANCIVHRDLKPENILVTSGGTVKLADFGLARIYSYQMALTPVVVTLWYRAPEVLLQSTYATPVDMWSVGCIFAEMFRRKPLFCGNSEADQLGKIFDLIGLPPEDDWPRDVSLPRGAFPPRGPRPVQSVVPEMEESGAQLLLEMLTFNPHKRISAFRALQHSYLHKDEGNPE
T2 sequence (P24385 whole entry partner): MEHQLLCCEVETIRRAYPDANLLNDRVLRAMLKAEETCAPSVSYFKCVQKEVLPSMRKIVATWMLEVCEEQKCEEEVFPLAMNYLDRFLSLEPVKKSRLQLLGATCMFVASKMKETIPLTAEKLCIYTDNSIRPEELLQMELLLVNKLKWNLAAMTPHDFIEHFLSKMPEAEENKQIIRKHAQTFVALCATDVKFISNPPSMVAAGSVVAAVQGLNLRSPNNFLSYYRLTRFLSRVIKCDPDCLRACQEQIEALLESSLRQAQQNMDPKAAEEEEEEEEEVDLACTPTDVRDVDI
T3 sequence (Q00534 whole entry): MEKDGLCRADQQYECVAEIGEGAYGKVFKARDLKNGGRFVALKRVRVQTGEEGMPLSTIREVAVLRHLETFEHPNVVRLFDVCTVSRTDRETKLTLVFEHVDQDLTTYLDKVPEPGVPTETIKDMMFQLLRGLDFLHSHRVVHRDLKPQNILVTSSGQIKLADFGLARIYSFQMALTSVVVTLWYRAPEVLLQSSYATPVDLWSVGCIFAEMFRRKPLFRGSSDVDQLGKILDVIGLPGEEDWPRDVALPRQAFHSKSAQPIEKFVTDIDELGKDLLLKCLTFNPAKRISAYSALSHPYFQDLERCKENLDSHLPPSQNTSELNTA
T3 sequence (P24385 whole entry partner): as the sequence (P24385 whole entry partner) above
Chain of MAK (P20794 whole entry): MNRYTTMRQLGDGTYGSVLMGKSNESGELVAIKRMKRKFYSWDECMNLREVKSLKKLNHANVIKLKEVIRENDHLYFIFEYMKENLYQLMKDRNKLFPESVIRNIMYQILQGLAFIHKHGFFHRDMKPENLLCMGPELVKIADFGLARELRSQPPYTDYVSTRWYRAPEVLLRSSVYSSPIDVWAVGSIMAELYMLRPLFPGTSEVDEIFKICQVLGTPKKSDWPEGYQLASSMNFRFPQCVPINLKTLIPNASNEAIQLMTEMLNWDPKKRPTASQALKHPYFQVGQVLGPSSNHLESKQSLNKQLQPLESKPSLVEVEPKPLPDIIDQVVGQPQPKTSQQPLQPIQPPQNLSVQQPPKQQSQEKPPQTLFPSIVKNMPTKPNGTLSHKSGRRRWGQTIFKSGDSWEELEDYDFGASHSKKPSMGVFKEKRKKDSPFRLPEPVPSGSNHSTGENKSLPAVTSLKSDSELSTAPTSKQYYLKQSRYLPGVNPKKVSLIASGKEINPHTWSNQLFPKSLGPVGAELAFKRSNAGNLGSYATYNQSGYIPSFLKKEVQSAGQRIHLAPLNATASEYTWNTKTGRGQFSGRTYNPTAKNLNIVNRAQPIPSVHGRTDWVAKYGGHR
T1 sequence (P06493 whole entry): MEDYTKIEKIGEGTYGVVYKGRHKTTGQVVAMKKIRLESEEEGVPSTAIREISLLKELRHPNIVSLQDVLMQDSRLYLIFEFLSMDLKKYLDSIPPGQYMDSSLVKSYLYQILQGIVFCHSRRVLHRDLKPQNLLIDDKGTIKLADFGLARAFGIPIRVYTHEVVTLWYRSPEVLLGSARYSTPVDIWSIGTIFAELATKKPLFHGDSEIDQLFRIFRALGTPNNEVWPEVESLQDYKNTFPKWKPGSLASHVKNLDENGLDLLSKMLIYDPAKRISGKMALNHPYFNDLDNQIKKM
T1 sequence (P14635 whole entry partner): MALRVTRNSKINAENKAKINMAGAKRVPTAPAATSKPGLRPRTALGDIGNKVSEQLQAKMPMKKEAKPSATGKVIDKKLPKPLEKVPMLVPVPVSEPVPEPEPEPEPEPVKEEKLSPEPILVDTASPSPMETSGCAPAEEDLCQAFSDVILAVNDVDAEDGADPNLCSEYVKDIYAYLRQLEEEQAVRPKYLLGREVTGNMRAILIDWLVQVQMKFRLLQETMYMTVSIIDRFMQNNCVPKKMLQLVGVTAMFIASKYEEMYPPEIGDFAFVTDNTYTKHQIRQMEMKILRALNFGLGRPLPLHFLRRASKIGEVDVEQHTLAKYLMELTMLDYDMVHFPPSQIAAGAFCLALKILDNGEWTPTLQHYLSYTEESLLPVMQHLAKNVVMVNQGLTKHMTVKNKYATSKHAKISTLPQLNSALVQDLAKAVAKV

## CN1CC[C@@H](c2c(O)cc(O)c3c(=O)cc(-c4ccc(C(F)(F)F)cc4Cl)oc23)[C@@H]1CO (relative stereo) [voruciclib, (+)-trans-2-(2-Chloro-4-trifluoromethylphenyl)-5,7-dihydroxy-8-(2-hydroxymethyl-1-methylpyrrolidin-3-yl)-chromen-4-one]
[1]
  potency: single digit
[2]
  potency: single digit
[3]
  potency: single digit
[4]
  specificity for CDKs: more specific for CDKs than flavopiradol
[5]
  expression of CC3: slight increase
[6]
  CC3 expression: little to no increase
[7]
  apoptosis (cleaved PARP): neither compound significantly induces apoptosis as a single agent
[8]
  MCL1 expression in xenograft tumors: suppressed
[9]
  tumor size (images): smaller
[9]; oral gavage
  average tumor volume: decrease in tumor volume
[10]
  inhibition of MAK: does not show potent inhibition
[11]
  body weight of mice: unaffected
[12]
  inhibition of CDK9: strongest inhibition
